Results taken from US10722580B2, “Compositions and methods for treatment and prevention of uropathogenic E. coli infection” (UNIVERSITY OF WASHINGTON, priority 2015, dated 2020).

Tests used:
[1] = test system: FimH^wt-expressing E. coli; assay: Inhibition of bacterial adhesion to surface-immobilized yeast mannan; assay type: cell-based
Procedure: (§1) Microtiter 96-well plates were coated with 20 μg/ml of yeast mannan or RNaseB (Sigma-Aldrich) in 0.02 M NaHCO3 buffer at pH 9.6. The wells were quenched with 0.2% bovine serum albumin (BSA, Sigma-Aldrich) in PBS for 20 min. Bacteria expressing FimH adhesin (OD=1 or OD=2) were first preincubated with different concentrations of mAbs for 1 h at 37° C. and then allowed to adhere to ligand-coated surface for another 1 h. After an extensive washing with PBS, plates were dried and bound bacteria were stained with 0.1% crystal violet (Becton Dickinson) for 20 min at room temperature (RT). The wells were washed with water and 50% ethanol was added to the wells. The absorbance was measured at 600 nm.

E. coli UTI89 [2] = assay: Mouse bladder infection, transurethral inoculation of mAb-pretreated bacteria; assay type: in vivo; conditions: C57BL/6 mice, 24 h post infection, bacteria pretreated with 500 μg/ml mAb 1 h
Procedure: Infection of 10- to 11-week-old C57BL/6 female mice was performed as described elsewhere (Kisiela, et al. 2013). Briefly, bacteria were grown in LB medium without shaking for 48 h, harvested, washed twice in PBS and resuspended in PBS at a final concentration of 10^8 CFU per ml. Bacteria were pretreated with 500 μg/ml mAbs for 1 h at 37° C. prior to inoculation. Mice were anesthetized with ketamine/xylazine and twenty-five microliters of mAb-pretreated bacteria in PBS were inoculated transurethrally into mouse bladders via catheter. After 24 h, mice were sacrificed and bladders were aseptically removed and homogenized in 1 mL PBS. Serial dilutions were plated and total bacterial load per bladder was calculated. Statistical significance was determined using two-tailed Mann-Whitney test (GraphPad Prism 6.0 software, La Jolla, Ca).

Klebsiella pneumoniae [3] = assay: Klebsiella biofilm formation on RNaseB-coated surfaces; assay type: cell-based; conditions: two Klebsiella FimH variants, 1% mannose or 50 μg/ml mAb (FIG. 11A)
Procedure: (§2) FIG. 11. […] Data (mean±SD, n=3 independent experiments). […] Data (mean±SD, n=3 independent experiments). Biofilm was quantified using the crystal violet staining method. *, P≤0.05, **, P≤0.0005 (one sample t-test).
(§3) Microtiter 96-well plates were coated with 20 μg/mL of yeast mannan or RNaseB (Sigma-Aldrich) in 0.02 M NaHCO3 buffer at pH 9.6. Bacterial strains grown overnight in 3 ml LB media were spun and washed 1× with minimal essential media (MEM, Difco). […] After washing with PBS, formed biofilms were stained with 0.1% (v/v) crystal violet (Becton Dickinson) as described above for bacterial adhesion assay. […] The wells were washed 3 times with PBS and stain for biofilm detection as described above.

Klebsiella pneumoniae [4] = assay: Detachment of 14 h-old Klebsiella biofilm; assay type: cell-based; conditions: 14-h-old biofilm, 1% mannose or 50 μg/ml mAb (FIG. 11B)
Procedure: as §2, §3

Klebsiella fimbrial FimH = assay: Binding of anti-E. coli FimH antibodies to Klebsiella fimbrial FimH; parameters: species or system Klebsiella pneumoniae; conditions: FimH^wt and FimH^S62A, 50 and 5 μg/ml mAb (FIG. 9)
Procedure: FIG. 9. Recognition of Klebsiella FimH by anti-E. coli FimH antibodies. […] Type 1 fimbriae carrying different FimH variants (FimH^wt and FimH^S62A mutant) were incubated with different concentrations of mAbs (50 and 5 μg/ml). Data shown are mean±SD of duplicates from one representative experiment.

FimH^wt:(186-201)FocH = assay: Cross-interference of inhibitory mAbs binding to FimH; parameters: species or system E. coli; conditions: FimH pre-incubated with antibody, biotinylated mAb binding (FIG. 16)
Procedure: FIG. 16. Inhibitory mAbs interfere with each other's binding to FimH. […] The data shown are mean±SD of triplicates from one representative experiment of multiple experiments that were performed with similar settings.

Klebsiella pneumoniae [5] = assay: Inhibition of Klebsiella adhesion to surface-immobilized RNaseB; assay type: cell-based; conditions: 50 μg/ml mAb (FIG. 10)
Procedure: FIG. 10. […] Data are mean±SD (n=2 independent experiments).
as §1

E. coli UTI89 [6] = assay: Biofilm formation on mannan-coated surface; assay type: cell-based; conditions: 1% mannose or 50 μg/ml mAb added prior to growth (FIG. 7A)
Procedure: as §3

E. coli UTI89 [7] = assay: Detachment of 16 h-old biofilm on mannan-coated surface; assay type: cell-based; conditions: for effect on detachment of pre-formed biofilm: 1% mannose or 50 μg/ml mAb (FIG. 7B)
Procedure: as §3

E. coli CFT073 [8] = assay: Passive and active immunization, diabetic mice, bacterial load in urine; assay type: in vivo; conditions: diabetic (STZ) mice; mAb 150 μg i.p. or LD antigen 15 μg s.c.
Procedure: (§4) The intraperitoneal injection was completed 1 day prior and 1 day after challenge with CFT073 E. coli (A07 Study for Vaccine candidate, Contract #HHSN2722010000401, Task Order #HHSN27200005, Galveston). […] Mixtures of antibodies for passive transfer were prepared as 150 μg per mouse doses in 50 μl volumes of sterile HBS. The effect of the antibodies was evaluated in two mice models that included non-diabetic and diabetic C57BI/6 mice, respectively. Mice injected with incomplete Freund's adjuvant only (IFA) were used as the control (mock) group in each model. Bacterial load in mice urine was analyzed daily over 14-days' time period starting 24 h after bacterial challenge.
Diabetic state in C57BI/6 mice was induced by the 4 days-treatment with streptozotocin (STZ) by intraperitoneal injection. Groups of 100 C57BI/6 mice were randomly divided into 5 groups of ten for diabetic and for non-diabetic states respectively. […] Bacterial load in mice urine was analyzed daily over 14-days' time starting 24 h after bacterial challenge. Genomic bacterial load was quantified in each urine sample (10 μl) by qPCR. […] For log10 transformation, zero counts (E. coli not detected) were replaced with value 1. […] After exclusion of outliers, 617 (out of initial 673, 91.6%) observations were analyzed using same model.

E. coli CFT073 [9] = assay: Passive and active immunization, non-diabetic mice, bacterial load in urine; assay type: in vivo
Procedure: as §4
Diabetic state in C57BI/6 mice was induced by the 4 days-treatment with streptozotocin (STZ) by intraperitoneal injection. Groups of 100 C57BI/6 mice were randomly divided into 5 groups of ten for diabetic and for non-diabetic states respectively. […] Mice were challenged with CFT073 UPEC strain (1×10^6 cfu/50 μl per mouse) via intraurethral catheterization under isoflurane anesthesia. Bacterial load in mice urine was analyzed daily over 14-days' time starting 24 h after bacterial challenge. Genomic bacterial load was quantified in each urine sample (10 μl) by qPCR. Statistical analysis of the data was performed using the Generalized Estimating Equation model (GEE) (xtgee command in STATA software, StataCorp. 2015. Stata Statistical Software: Release 14. College Station, Tex.: StataCorp LP). Overall, 1400 observations were made for 100 mice over 14 days. Out of 1,400 total 237 observations were missing (no urine provided) and were excluded from subsequent analysis. The mice ID were set as a panel variable, treatment type and days as predictor variables with interaction allowed between them; and E. coli counts as an outcome variable. […] For log10 transformation, zero counts (E. coli not detected) were replaced with value 1. […] After exclusion of outliers, 617 (out of initial 673, 91.6%) observations were analyzed using same model.

Chain of FimH^wt:(186-201)FocH (P08191 22-179 limits assumed): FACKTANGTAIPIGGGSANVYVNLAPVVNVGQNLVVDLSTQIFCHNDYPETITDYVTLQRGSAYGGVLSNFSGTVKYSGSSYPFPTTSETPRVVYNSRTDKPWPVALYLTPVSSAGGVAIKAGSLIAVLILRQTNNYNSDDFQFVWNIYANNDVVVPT

| Substance | difference in inhibitory potency (IC50) mAb926 vs mAb475 [1] [fold] | inhibition of bacterial adhesion at its KD concentration ([1]; antibody at its KD concentration) [%] | reduction in bacteria recovered from bladder (E. coli UTI89 [2]) [%] | inhibition of biofilm formation (Klebsiella pneumoniae [3]) | destabilization of pre-formed biofilm (Klebsiella pneumoniae [4]) | binding to Klebsiella FimH compared with E. coli FimH (Klebsiella fimbrial FimH) | interference with the other inhibitory mAb's binding to FimH (FimH^wt:(186-201)FocH) | effect on Klebsiella adhesion to RNaseB (Klebsiella pneumoniae [5]) | effect on biofilm formation (E. coli UTI89 [6]) | biofilm reduction (E. coli UTI89 [7]; 50 μg/ml mAb (FIG. 7B)) [%] | effect on detachment of pre-formed biofilm (E. coli UTI89 [7]) | effect on bacterial counts in urine vs mock group (E. coli CFT073 [8]) | estimated average log10 of bacterial counts in urine (E. coli CFT073 [9]; non-diabetic C57BI/6 mice, day 1 after challenge, 150 μg mAb i.p. 1 day prior and 1 day after challenge) [log10] | estimated log10 bacterial counts in urine (E. coli CFT073 [9]; non-diabetic C57BI/6 mice, day 3 after challenge, 150 μg mAb i.p.) [log10] | effect on bacterial counts in urine vs mock group (E. coli CFT073 [9]; non-diabetic mice, mAb 150 μg i.p. or LD antigen 15 μg s.c.) |
| --- | --- | --- | --- | --- | --- | --- | --- | --- | --- | --- | --- | --- | --- | --- | --- |
| mAb926: mouse monoclonal anti-FimH antibody, VL SEQ ID NO: 3, VH SEQ ID NO: 4; non-competitive parasteric inhibitor | 32 | > 50 | 83 | 76-86% | significant (P=0.0005) destabilization of the biofilm | same level of binding to both FimH adhesins | strongly cross-interfere with each other's binding to FimH | significantly reduced bacterial adhesion | prevented formation | 93 | effective dissolution of the biofilm | reduced bacterial load | 1.31±0.5 | 0.99±0.4 | significant decrease of bacterial counts in urine |
| α-methyl-D-mannopyranoside [mannose, reference compound] | – | – | – | 38-67% | – | – | – | – | prevented formation | – | neither mAb475 nor soluble mannose caused substantial detachment | – | – | – | – |
